The values that follow come from patent US8476265B2, “Compounds-801” (AstraZeneca AB, priority 2010, dated 2013).

For one experiment, the target named is T1, Adrenergic β2 (Homo sapiens, UniProt P07550).
T1 construct: Adherent H292 cells are removed from tissue culture flasks by treatment with Accutase™ cell detachment solution; endogenous in cells; host or cells: H292 cells
Kind of experiment: Adrenergic β2 mediated cAMP production in H292 cells (AlphaScreen), concentration response. It is filed as cell-based. Particulars: for EC50: 60 min, 300 μM rolipram, read-out: β2 pEC50 (converted); for β2 Intrinsic Activity: fraction relative to the maximum activity determined for formoterol. As to the method:
Assay for Adrenergic 132 Mediated cAMP Production
H292 cells are grown in 225 cm2 flasks incubator at 37° C., 5% CO2 in RPMI medium containing 10% (v/v) FBS (foetal bovine serum) and 2 mM L-glutamine.
Adherent H292 cells re removed from tissue culture flasks by treatment with Accutase™ cell detachment solution for 15 minutes. Flasks are incubated for 15 minutes in a humidified incubator at 37° C., 5% CO2. Detached cells are re-suspended in RPMI media (containing 10% (v/v) FBS and 2 mM L-glutamine) at 0.1×10^6 cells per mL. 10000 cells in 100 μl, are added to each well of a tissue-culture-treated 96-well plate and the cells incubated overnight in a humidified incubator at 37° C., 5% CO2. The culture media is removed and cells are washed twice with 100 μL assay buffer and replaced with 50 μl assay buffer (HBSS solution containing 10 mM HEPES pH7.4 and 5 mM glucose). Cells are rested at room temperature for 20 minutes after which time 25 μl of rolipram (1.2 mM made up in assay buffer containing 2.4% (v/v) dimethylsulphoxide) is added. Cells are incubated with rolipram for 10 minutes after which time test compounds are added and the cells are incubated for 60 minutes at room temperature. The final rolipram concentration in the assay is 300 μM and final vehicle concentration is 1% (v/v) dimethylsulphoxide. The reaction is stopped by removing supernatants, washing once with 100 μL assay buffer and replacing with 50 μL lysis buffer. The cell monolayer is frozen at −80° C. for 30 minutes (or overnight).
AlphaScreen™ cAMP detection
The concentration of cAMP (cyclic adenosine monophosphate) in the cell lysate is determined using AlphaScreen™ methodology. The frozen cell plate is thawed for 20 minutes on a plate shaker then 10 μL of the cell lysate is transferred to a 96-well white plate. 40 μL of mixed AlphaScreen™ detection beads pre-incubated with biotinylated cAMP, is added to each well and the plate incubated at room temperature for 3 hours in the dark. The AlphaScreen™ signal is measured using an EnVision spectrophotometer (Perkin-Elmer Inc.) with the recommended manufacturer's settings. cAMP concentrations are determined by reference to a calibration curve determined in the same experiment using standard cAMP concentrations. Concentration response curves for agonists are constructed and data is fitted to a four parameter logistic equation to determine both the pEC50 and Intrinsic Activity. Intrinsic Activity is expressed as a fraction relative to the maximum activity determined for formoterol in each experiment.
A general note: cAMP levels reflect the balance of adenylyl cyclase and phosphodiesterase activity.

Experiment [1] addresses T2, human muscarinic acetylcholine M3 receptor (Homo sapiens, UniProt P20309).
T2 construct: expressed in transfected cells; host or cells: CHO-K1 (Chinese Hamster Ovary) cell membranes
As to the kind of experiment: Muscarinic 3 receptor binding assay ([3H]NMS competition, SPA), pIC50. Particulars: [3H]NMS 0.1 nM, CHO-K1 cell membranes expressing human M3 receptor. On the procedure:
Muscarinic 3 Receptor Binding Assay
The affinity (pIC50) of compounds binding to the M3 receptor is determined by competition binding of [^3H]N-methyl scopolamine (NMS) to CHO-K1 (Chinese Hamster Ovary) cell membranes expressing the human muscarinic acetylcholine M3 receptor (M3-ACh) in a scintillation proximity assay (SPA) format.
SPA beads are precoated with membranes and then incubated at 2 mg of beads per well with serial dilutions of compounds of the invention, [^3H]NMS at 0.1 nM, quarter Kd (experimentally determined dissociation constant) and assay buffer (20 mM HEPES pH 7.4 containing 5 mM MgCl2 and 0.1% (w/v) bovine serum albumin). The assay is conducted in a final volume of 200 μL, in the presence of 1% (v/v) dimethyl sulphoxide (DMSO). Total binding of [^3H]NMS is determined in the absence of competing compound and non-specific binding of [^3H]NMS is determined in the presence of 1 μM atropine. The plates are incubated for 16 hours at room temperature and then read on Wallac Microbeta™ using a normalised ^3H protocol. The pIC50, defined as the negative logarithm of the molar concentration of compound required for 50% reduction in specific [^3H]-NMS binding, is determined.

Structures are written as SMILES.

T1 sequence (P07550 whole entry): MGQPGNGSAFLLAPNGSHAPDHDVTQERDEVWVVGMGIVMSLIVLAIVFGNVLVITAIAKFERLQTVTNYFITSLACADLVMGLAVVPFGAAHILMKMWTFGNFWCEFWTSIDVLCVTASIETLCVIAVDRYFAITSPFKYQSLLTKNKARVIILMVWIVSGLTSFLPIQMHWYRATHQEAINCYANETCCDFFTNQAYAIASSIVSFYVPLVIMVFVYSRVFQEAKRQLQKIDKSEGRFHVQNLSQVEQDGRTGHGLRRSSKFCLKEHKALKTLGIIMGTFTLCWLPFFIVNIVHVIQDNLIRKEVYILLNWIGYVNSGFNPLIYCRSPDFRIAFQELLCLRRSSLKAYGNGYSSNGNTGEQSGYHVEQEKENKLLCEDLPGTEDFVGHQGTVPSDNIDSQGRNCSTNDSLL
T2 sequence (P20309 whole entry): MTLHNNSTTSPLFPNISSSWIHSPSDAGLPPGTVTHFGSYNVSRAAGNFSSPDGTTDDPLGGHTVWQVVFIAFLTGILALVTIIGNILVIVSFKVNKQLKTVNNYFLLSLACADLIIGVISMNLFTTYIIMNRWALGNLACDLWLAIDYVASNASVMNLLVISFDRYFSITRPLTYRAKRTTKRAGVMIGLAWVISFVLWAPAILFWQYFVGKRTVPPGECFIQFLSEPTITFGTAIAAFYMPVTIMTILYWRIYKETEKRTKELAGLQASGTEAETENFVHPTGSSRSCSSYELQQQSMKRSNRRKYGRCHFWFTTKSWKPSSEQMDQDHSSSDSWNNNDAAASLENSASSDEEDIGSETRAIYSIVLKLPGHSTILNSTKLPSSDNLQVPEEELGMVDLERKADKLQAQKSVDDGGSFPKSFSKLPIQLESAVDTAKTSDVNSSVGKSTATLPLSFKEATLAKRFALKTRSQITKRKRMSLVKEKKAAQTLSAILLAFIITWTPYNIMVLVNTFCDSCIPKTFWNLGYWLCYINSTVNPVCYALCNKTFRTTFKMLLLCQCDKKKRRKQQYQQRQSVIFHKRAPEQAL

By IC50 is commonly meant the concentration at which inhibition is half-maximal. A low value points to greater potency in that assay. For `CCC(CC)c1nc(C(=O)N2CCOC3(CCN(Cc4cccc(CCOCCC(=O)N(CCNCCc5ccc(O)c6c5OCC(=O)N6)C5CCCCC5)c4)CC3)C2)cs1` [Example 96, N-Cyclohexyl-N-(2-(2-(5-hydroxy-3-oxo-3,4-dihydro-2H-benzo[b][1,4]oxazin-8-yl)ethylamino)ethyl)-3-(3-((4-(2-(pentan-3-yl)thiazole-4-carbonyl)-1-oxa-4,9-diazaspiro[5.5]undecan-9-yl)methyl)phenethoxy)propanamide], at Adrenergic β2, the EC50 is 0.158 µM and the “β2 Intrinsic Activity” value is reported as 1.0. The compound further gave an IC50 in experiment [1] of 0.000251 µM.

Regarding `CCc1cc(C(=O)N2CCOC3(CCN(Cc4cccc(CCOCCC(=O)N(CC)CCNCCc5ccc(O)c6c5OCC(=O)N6)c4F)CC3)C2)cs1` [Example 24, N-Ethyl-3-(3-((4-(5-ethylthiophene-3-carbonyl)-1-oxa-4,9-diazaspiro[5.5]undecan-9-yl)methyl)-2-fluorophenethoxy)-N-(2-(2-(5-hydroxy-3-oxo-3,4-dihydro-2H-benzo[b][1,4]oxazin-8-yl)ethylamino)ethyl)propanamide ditrifluoroacetate], on Adrenergic β2, the EC50 was 0.0794 µM and the “β2 Intrinsic Activity” value is listed as 0.9. Further, the 50% inhibitory concentration (IC50) in experiment [1] was 0.001 µM.

For the compound `CC(C)c1nc(C(=O)N2CCOC3(CCN(CCOc4cccc(CCOCCC(=O)N(CCNCCc5ccc(O)c6c5OCC(=O)N6)C5CCCCC5)c4)CC3)C2)cs1` [Example 53, N-Cyclohexyl-N-(2-(2-(5-hydroxy-3-oxo-3,4-dihydro-2H-benzo[b][1,4]oxazin-8-yl)ethylamino)ethyl)-3-(3-(2-(4-(2-isopropylthiazole-4-carbonyl)-1-oxa-4,9-diazaspiro[5.5]undecan-9-yl)ethoxy)phenethoxy)propanamide ditrifluoroacetate], on Adrenergic β2, the EC50 was 0.02 µM and the “β2 Intrinsic Activity” value amounted to 1.0. In experiment [1], this compound gave an IC50 of 0.00794 µM.

Take `CC(C)c1nc(C(=O)N2CCOC3(CCN(Cc4cc(F)cc(CCOCCC(=O)N(CCNCCc5ccc(O)c6c5OCC(=O)N6)C5CCCCC5)c4)CC3)C2)cs1` [Example 47, N-Cyclohexyl-3-(3-fluoro-5-((4-(2-isopropylthiazole-4-carbonyl)-1-oxa-4,9-diazaspiro[5.5]undecan-9-yl)methyl)phenethoxy)-N-(2-(2-(5-hydroxy-3-oxo-3,4-dihydro-2H-benzo[b][1,4]oxazin-8-yl)ethylamino)ethyl)propanamide ditrifluoroacetate]: at Adrenergic β2, the EC50 was 0.0631 µM and the “β2 Intrinsic Activity” value was determined as 0.9. In addition, in experiment [1], the IC50 is 0.000398 µM.

Regarding `CCCN(CCNCCc1ccc(O)c2[nH]c(=O)sc12)C(=O)CCOCCc1ccc(CCN2CCC3(CC2)CN(C(=O)c2csc(CC)n2)CCO3)cc1` [Example 3, 3-(4-(2-(4-(2-Ethylthiazole-4-carbonyl)-1-oxa-4,9-diazaspiro[5.5]undecan-9-yl)ethyl)phenethoxy)-N-(2-(2-(4-hydroxy-2-oxo-2,3-dihydrobenzo[d]thiazol-7-yl)ethylamino)ethyl)-N-propylpropanamide ditrifluoroacetate], on Adrenergic β2, the EC50 is 0.2 µM and the “β2 Intrinsic Activity” value came out at 1.0. In experiment [1], the IC50 is 0.001 µM.

Regarding `CCCCc1nc(C(=O)N2CCOC3(CCN(Cc4cccc(CCOCCC(=O)N(CC)CCNCCc5ccc(O)c6c5OCC(=O)N6)c4Cl)CC3)C2)cs1` [Example 77, 3-(3-((4-(2-Butylthiazole-4-carbonyl)-1-oxa-4,9-diazaspiro[5.5]undecan-9-yl)methyl)-2-chlorophenethoxy)-N-ethyl-N-(2-(2-(5-hydroxy-3-oxo-3,4-dihydro-2H-benzo[b][1,4]oxazin-8-yl)ethylamino)ethyl)propanamide ditrifluoroacetate], at Adrenergic β2, the EC50 is 0.0126 µM and the “β2 Intrinsic Activity” value turned out to be 0.8. In addition, in experiment [1], the IC50 was 0.00398 µM.

As for `CC(C)c1nc(C(=O)N2CCOC3(CCN(Cc4cc(CCOCCC(=O)N(CCNCCc5ccc(O)c6c5OCC(=O)N6)C5CCCCC5)ccc4Cl)CC3)C2)cs1` [Example 49, 3-(4-Chloro-3-((4-(2-isopropylthiazole-4-carbonyl)-1-oxa-4,9-diazaspiro[5.5]undecan-9-yl)methyl)phenethoxy)-N-cyclohexyl-N-(2-(2-(5-hydroxy-3-oxo-3,4-dihydro-2H-benzo[b][1,4]oxazin-8-yl)ethylamino)ethyl)propanamide ditrifluoroacetate], on Adrenergic β2, the EC50 is 0.158 µM and the “β2 Intrinsic Activity” value is 0.9. This compound had a 50% inhibitory concentration (IC50) in experiment [1] of 0.00316 µM.

For the compound `CCN(CCNCCc1ccc(O)c2[nH]c(=O)sc12)C(=O)CCOCCc1cccc(CN2CCC3(CC2)CN(C(=O)c2csc(C(C)C)n2)CCO3)c1F` [Example 10, N-Ethyl-3-(2-fluoro-3-((4-(2-isopropylthiazole-4-carbonyl)-1-oxa-4,9-diazaspiro[5.5]undecan-9-yl)methyl)phenethoxy)-N-(2-(2-(4-hydroxy-2-oxo-2,3-dihydrobenzo[d]thiazol-7-yl)ethylamino)ethyl)propanamide ditrifluoroacetate], at Adrenergic β2, the EC50 is 0.0316 µM and the “β2 Intrinsic Activity” value is on record as 0.8. This compound also showed a 50% inhibitory concentration (IC50) in experiment [1] of 0.000631 µM.

As for `CC(C)c1nc(C(=O)N2CCOC3(CCN(Cc4cccc(CCOCCC(=O)N(CCF)CCNCCc5ccc(O)c6c5OCC(=O)N6)c4F)CC3)C2)cs1` [Example 72, 3-(2-Fluoro-3-((4-(2-isopropylthiazole-4-carbonyl)-1-oxa-4,9-diazaspiro[5.5]undecan-9-yl)methyl)phenethoxy)-N-(2-fluoroethyl)-N-(2-(2-(5-hydroxy-3-oxo-3,4-dihydro-2H-benzo[b][1,4]oxazin-8-yl)ethylamino)ethyl)propanamide ditrifluoroacetate], at Adrenergic β2, the EC50 was 0.0316 µM and the “β2 Intrinsic Activity” value was found to be 0.9. This compound showed a half-maximal inhibitory concentration (IC50) in experiment [1] of 0.000126 µM.

On to `CC(C)c1nc(C(=O)N2CCOC3(CCN(Cc4cccc(OCCOCCC(=O)N(CCNCCc5ccc(O)c6c5OCC(=O)N6)C5CCCCC5)c4)CC3)C2)cs1` [Example 59, N-Cyclohexyl-N-(2-(2-(5-hydroxy-3-oxo-3,4-dihydro-2H-benzo[b][1,4]oxazin-8-yl)ethylamino)ethyl)-3-(2-(3-((4-(2-isopropylthiazole-4-carbonyl)-1-oxa-4,9-diazaspiro[5.5]undecan-9-yl)methyl)phenoxy)ethoxy)propanamide ditrifluoroacetate], for which, at Adrenergic β2, the EC50 is 0.631 µM and the “β2 Intrinsic Activity” value is 0.9. Further, in experiment [1], the concentration for half-maximal inhibition (IC50) is 0.000251 µM.

For `Cc1cc(C(=O)N2CCOC3(CCN(Cc4cccc(CCOCCC(=O)N(CCNCCc5ccc(O)c6c5OCC(=O)N6)C5CCCCC5)c4)CC3)C2)cs1` [Example 85, N-Cyclohexyl-N-(2-(2-(5-hydroxy-3-oxo-3,4-dihydro-2H-benzo[b][1,4]oxazin-8-yl)ethylamino)ethyl)-3-(3-((4-(5-methylthiophene-3-carbonyl)-1-oxa-4,9-diazaspiro[5.5]undecan-9-yl)methyl)phenethoxy)propanamide], on Adrenergic β2, the EC50 is 0.126 µM and the “β2 Intrinsic Activity” value is listed as 0.9. The IC50 in experiment [1] was 0.000126 µM.

Regarding `CCN(CCNCCc1ccc(O)c2[nH]c(=O)sc12)C(=O)CCOCCc1ccc(F)c(CN2CCC3(CC2)CN(C(=O)c2csc(C(C)C)n2)CCO3)c1` [Example 44, N-Ethyl-3-(4-fluoro-3-((4-(2-isopropylthiazole-4-carbonyl)-1-oxa-4,9-diazaspiro[5.5]undecan-9-yl)methyl)phenethoxy)-N-(2-(2-(4-hydroxy-2-oxo-2,3-dihydrobenzo[d]thiazol-7-yl)ethylamino)ethyl)propanamide], at Adrenergic β2, the EC50 is 0.501 µM and the “β2 Intrinsic Activity” value was found to be 1.1. Further, the concentration for half-maximal inhibition (IC50) in experiment [1] was 0.000501 µM.
